The source of these data is patent US12006283B2, “HIF-1α inhibitor, preparation method therefor, and pharmaceutical composition for preventing or treating angiogenesis-associated eye disease, containing same as active ingredient” (SEOUL NATIONAL UNIVERSITY R&DB FOUNDATION, priority 2018, dated 2024).

Assay [1] addresses T1, HIF-1α (hypoxia-inducible factor 1α) (Homo sapiens, UniProt Q16665). The experiment in a line: Evaluation of HIF-1α inhibitory activity (in vitro). It counts as cell-based. The conditions noted are these: for IC50: HIF-1α inhibitory activity. As to the method:
<Experimental Example 1> Evaluation of HIF-La Inhibitory Activity (In Vitro) The following experiment was performed in order to evaluate inhibitory activity against HIF-1α (hypoxia-inducible factor 1α) of the compound of Example according to an embodiment of the present invention.

A further assay deals with angiogenesis. Put plainly: Evaluation of inhibitory activity against angiogenesis (in vitro). It counts as cell-based. The conditions noted are these: FIG. 1, compared with Comparative Example 1. As to the method:
<Experimental Example 2> Evaluation of Inhibitory Activity Against Angiogenesis (In Vitro)
The following experiment was performed in order to evaluate inhibitory activity against angiogenesis of the compound of Example according to an embodiment of the present invention.
FIG. 1 is a graph showing the results of analysis of inhibitory activity against angiogenesis of the compound of Example according to an embodiment of the present invention, wherein compound 2 is a compound of Comparative Example 1, and compound 34f is a compound of Example 10.

Assay [2] concerns the target T1, HIF-1α (hypoxia-inducible factor 1α). The experiment in a line: Evaluation of HIF-1α regulatory activity (in vitro). The note with it: FIG. 2, compared with Comparative Example 1. The format is cell-based. As for the experimental part:
<Experimental Example 3> Evaluation of HIF-1α Regulatory Activity (In Vitro)
The following experiment was performed in order to evaluate regulatory activity of HIF-1α (hypoxia-inducible factor 1α) of the compound of Example according to an embodiment of the present invention.
FIG. 2 is a graph showing the results of analysis of the regulatory activity of HIF-1α (hypoxia-inducible factor 1α) of the compound of Example according to an embodiment of the present invention, wherein compound 2 is a compound of Comparative Example 1, and compound 34f is a compound of Example 10.

For assay [3], the system named is retinal neovascularization by hypoxia. The experiment in a line: Evaluation of inhibitory activity against retinal neovascularization by hypoxia. The format is in vivo. The conditions noted are these: FIG. 3; compared with Comparative Example 1. As to the method:
<Experimental Example 4> Evaluation of Inhibitory Activity Against Retinal Neovascularization by Hypoxia
The following experiment was performed in order to evaluate inhibitory activity against retinal neovascularization by hypoxia of the compound of Example according to an embodiment of the present invention.
FIG. 3 is a graph showing the results of analysis of the inhibitory activity against retinal neovascularization by hypoxia of the compound of Example according to an embodiment of the present invention, wherein compound 2 is a compound of Comparative Example 1, and compound 34f is a compound of Example 10.

T1 sequence (Q16665 whole entry, looked up): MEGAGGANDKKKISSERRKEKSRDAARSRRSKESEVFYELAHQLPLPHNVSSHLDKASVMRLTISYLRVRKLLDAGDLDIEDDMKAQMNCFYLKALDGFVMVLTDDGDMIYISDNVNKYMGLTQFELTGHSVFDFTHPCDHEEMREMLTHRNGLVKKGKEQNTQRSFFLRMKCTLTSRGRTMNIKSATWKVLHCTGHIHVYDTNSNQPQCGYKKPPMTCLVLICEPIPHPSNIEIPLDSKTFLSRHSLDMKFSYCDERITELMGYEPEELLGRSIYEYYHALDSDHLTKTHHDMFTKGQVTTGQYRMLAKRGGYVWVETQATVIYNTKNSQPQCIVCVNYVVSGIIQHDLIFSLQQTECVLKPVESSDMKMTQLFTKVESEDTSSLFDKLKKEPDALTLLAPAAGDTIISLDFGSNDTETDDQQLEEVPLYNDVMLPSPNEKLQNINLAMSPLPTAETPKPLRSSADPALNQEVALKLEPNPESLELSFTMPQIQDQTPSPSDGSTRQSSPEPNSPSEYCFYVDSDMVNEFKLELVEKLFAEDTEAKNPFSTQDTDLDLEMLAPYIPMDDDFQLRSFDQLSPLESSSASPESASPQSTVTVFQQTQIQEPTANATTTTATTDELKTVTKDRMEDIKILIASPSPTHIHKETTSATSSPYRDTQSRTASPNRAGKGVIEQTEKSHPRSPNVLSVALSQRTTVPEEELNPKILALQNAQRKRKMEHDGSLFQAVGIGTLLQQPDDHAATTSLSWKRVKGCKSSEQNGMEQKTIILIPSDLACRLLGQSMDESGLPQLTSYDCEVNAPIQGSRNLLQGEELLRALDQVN

As to `COc1ccc(C(C)C(=O)c2ccc(NCc3ccccc3)cc2OC)cc1OC` (stereo not shown) [Example 9, 1-(4-(benzylamino)-2-methoxyphenyl)-2-(3,4-dimethoxyphenyl)propan-1-one], inhibition in assay [1] was half-maximal at 1.43 µM (IC50).

Consider `COc1ccc(C(C)C(=O)c2ccc(N(C)C)cc2OC)cc1OC` (stereo not shown) [Example 5, 2-(3,4-dimethoxyphenyl)-1-(4-(dimethylamino)-2-methoxyphenyl)propan-1-one], for which the IC50 in assay [1] is over 15 µM.

Regarding `CC(C(=O)c1ccc(N2CCCCC2)cc1)c1ccccc1F` (stereo not shown) [Example 13, 2-(2-fluorophenyl)-1-(4-(piperidin-1-yl)phenyl)propan-1-one], the IC50 in assay [1] is 2.06 µM.

For `COc1cc(N2CCCCC2)ccc1C(=O)C(C)c1ccccc1F` (stereo not shown) [Example 15, 2-(2-fluorophenyl)-1-(2-methoxy-4-(piperidin-1-yl)phenyl)propan-1-one], the IC50 in assay [1] amounted to 6.52 µM.

Turning to “2-(3,4-dimethoxyphenyl)-1-(4-(pyrrolidin-1-yl)phenyl)propan-1-one [Example 11]”, in assay [1], the half-inhibitory concentration (IC50) is 2.61 µM.

`COc1ccc(C(C)C(=O)c2ccc(OC3CCCCC3)cc2OC)cc1OC` (stereo not shown) [Example 4, 1-(4-(cyclohexyloxy)-2-methoxyphenyl)-2-(3,4-dimethoxyphenyl)propan-1-one] yielded a half-inhibitory concentration (IC50) in assay [1] of 2.59 µM. The IC50 values of the last two compounds are within 1.5-fold of each other.

Take `COc1ccc(C(C)C(=O)c2ccc(N3CCCCC3)cc2OC)cc1OC` (stereo not shown) [Example 7, 2-(3,4-dimethoxyphenyl)-1-(2-methoxy-4-(piperidin-1-yl)phenyl)propan-1-one]: inhibition in assay [1] was half-maximal at 1.85 µM (IC50).

Take `COc1ccc(C(C)C(=O)c2ccc(N3CCCC3)cc2OC)cc1OC` (stereo not shown) [Example 6, 2-(3,4-dimethoxyphenyl)-1-(2-methoxy-4-(pyrrolidin-1-yl)phenyl)propan-1-one]: the midpoint of inhibition in assay [1], the IC50, lay at 2.82 µM. This IC50 is about 1.5-fold higher than that of the compound before.

Compound `CC(C(=O)c1ccc(NCc2ccccc2)cc1)c1ccccc1F` (stereo not shown) [Example 14, 1-(4-(benzylamino)phenyl)-2-(2-fluorophenyl)propan-1-one] gave an IC50 in assay [1] of 7.35 µM.

Turning to `COc1ccc(C(C)C(=O)c2ccc(NCc3ccc(C#N)cc3)cc2OC)cc1OC` (stereo not shown) [Example 10], it took 0.6 µM to reach half-maximal inhibition in assay [1] (IC50). The “inhibitory activity against HIF-1α (in words)” value in assay [1] (comment on Table 2) is given as “best inhibitory activity against HIF-1a”. The “inhibitory activity against angiogenesis” value in the assay on angiogenesis is recorded as “better inhibitory activity against angiogenesis than that of the compound of Comparative Example 1”. For the same compound, the HIF-1α regulatory activity result in assay [2] is “better HIF-1α regulatory activity than that of the compound of Comparative Example 1”. Further, the “inhibitory activity against retinal neovascularization by hypoxia” value in assay [3] was “better inhibitory activity against retinal neovascularization by hypoxia than that of the compound of Comparative Example 1”.

Take `COc1ccc(C(=O)C(C)c2ccc(OC)c(OC)c2)c(OC)c1` (stereo not shown) [Example 2, 1-(2,4-dimethoxyphenyl)-2-(3,4-dimethoxyphenyl)propan-1-one]: the IC50 in assay [1] was over 15 µM.

For the compound `CCOc1ccc(C(=O)C(C)c2ccc(OC)c(OC)c2)c(OC)c1` (stereo not shown) [Example 3, 2-(3,4-dimethoxyphenyl)-1-(4-ethoxy-2-methoxyphenyl)propan-1-one], in assay [1], half-maximal inhibition (IC50) required 11.7 µM.

For the compound `COc1ccc(C(C)C(=O)c2ccc(N3CCOCC3)cc2)cc1OC` (stereo not shown) [Example 12, 2-(3,4-dimethoxyphenyl)-1-(4-morpholinophenyl)propan-1-one], 6.85 µM corresponded to half-maximal inhibition in assay [1] (IC50).

Regarding `COc1cc(NCc2ccc(C#N)cc2)ccc1C(=O)C(C)c1ccccc1F` (stereo not shown) [Example 16, 4-(((4-(2-(2-fluorophenyl)propanoyl)-3-methoxyphenyl)amino)methyl)benzonitrile], in assay [1], the IC50 is 5.28 µM.

`COc1ccc(C(C)C(=O)c2ccc(N3CCOCC3)cc2OC)cc1OC` (stereo not shown) [Example 8, 2-(3,4-dimethoxyphenyl)-1-(2-methoxy-4-morpholinophenyl)propan-1-one] showed a half-inhibitory concentration (IC50) in assay [1] of 8.74 µM. Against the preceding compound, the IC50 is about 1.7-fold higher.
